For this test, the system named is HL-1 cardiomyocytes, H2O2 protection, ATPLite, 2 h. Description: HL-1 cardiomyocyte survival under H2O2 injury – cell-based, hydrogen peroxide, ATP luminescence, SAR follow-up (AID 623872).

Active and inactive are the calls of the source.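 How the source made its calls: active means IC50 at or below 20 µM in the dose response; inactive means the rest.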

The term IC50 denotes the point on the concentration scale where inhibition reaches its midpoint.

For the compound `CCCN(CC(=O)Nc1ccccc1OC)C(=O)c1cc(-c2cccs2)nn1-c1ccccc1`, the IC50 is > 79 µM (inactive).
Consider `O=c1[nH]c2ccccc2cc1CN(Cc1ccco1)S(=O)(=O)c1ccc(F)cc1`, for which the IC50 is > 79 µM (inactive).
In the case of `O=C(C(=O)N1CCCC1)c1c(-c2ccccc2)[nH]c2ccccc12`, the IC50 was > 79 µM (inactive).
`COc1cc(-c2cc(C(=O)Nc3cccc(C(C)=O)c3)c3ccccc3n2)cc(OC)c1OC`: the IC50 is 2.08 µM.
`COc1cccc(CN(C)C(=O)c2cc(-c3ccccc3)nc3ccc(C)cc23)c1OC`: the IC50 is > 79 µM (inactive).
Under `COc1ccc(-n2cc(-c3ccccc3)c3c(NCc4ccccc4)ncnc32)cc1` stands > 79 µM (inactive); under `COc1ccc2cc(C(=O)N3CCN(S(=O)(=O)c4ccc(C)cc4C)CC3)c(C)nc2c1`, > 79 µM (inactive); under `NC(=O)c1nsc(C(=O)N(Cc2ccccc2)C(C(=O)NCc2ccc(F)cc2)c2ccc(O)cc2)c1N` (stereo not given), > 79 µM (inactive).
On to `COc1ccc(NC(=O)CN(C)C(=O)c2cc(-c3cccs3)nn2-c2ccccc2)cc1`, for which the IC50 was > 79 µM (inactive).
For the compound `Cc1ccc(-c2[nH]c3ccccc3c2C(=O)C(=O)N(C)C)cc1`, the IC50 was > 79 µM (inactive).
For `Cc1ccccc1N(C(=O)c1snc(C(N)=O)c1N)C(C(=O)NCc1ccc(F)cc1)c1ccc(O)cc1` (stereo not given), the IC50 is > 79 µM (inactive).
Consider `Cc1ccc(NC(=O)CN(C)C(=O)c2cc(-c3cccs3)nn2-c2ccccc2)cc1`, for which the IC50 is > 79 µM (inactive).
In the case of `CCN(CC(=O)Nc1ccc(OC)cc1)C(=O)c1cc(-c2cccs2)nn1-c1ccccc1`, the IC50 was > 79 µM (inactive).
`O=C(C(=O)N1CCCCC1)c1c(-c2ccccc2)[nH]c2ccccc12`: the IC50 was > 79 µM (inactive).
With `CCN(CC)S(=O)(=O)c1cc(C(=O)N2CCN(Cc3cccc4cccnc34)CC2)ccc1C`, the IC50 is > 79 µM (inactive).
Under `COc1cccc(NC(=O)CN(C)C(=O)c2cc(-c3cccs3)nn2-c2ccccc2)c1` stands > 79 µM (inactive); under `Cc1ccc(S(=O)(=O)N2CCN(C(=O)c3cc(=O)[nH]c4ccccc34)CC2)cc1C`, > 79 µM (inactive).
As for `COc1ccc2c(c1OC)C(=O)N1c3ccccc3C(=O)N(c3cccc(Br)c3)C21` (stereo not given), the IC50 is 1.89 µM.
Consider `COc1ccc(-c2cc(C(=O)NCc3ccccc3)c3ccccc3n2)cc1OC`, for which the IC50 is > 79 µM (inactive).
`O=C1c2ccccc2N2C(=O)c3ccccc3[C@H]2N1c1ccccc1`: the IC50 is > 79 µM (inactive).
`CCCn1c(SC(C(=O)Nc2cccc(OC)c2)c2ccccc2)nc2ccccc2c1=O` (stereo not given): the IC50 was > 79 µM (inactive).
For the compound `NC(=O)c1nsc(C(=O)N(c2cccc(F)c2)C(C(=O)NC2CCCC2)c2ccc(O)cc2)c1N` (stereo not given), the IC50 was > 79 µM (inactive).
`COCCn1c(SC(C(=O)Nc2cc(C)ccc2C)c2ccccc2)nc2ccccc2c1=O` (stereo not given): the IC50 is > 79 µM (inactive).
Under `COc1cccc(NC(=O)C(Sc2nc3ccccc3c(=O)n2CC(C)C)c2ccccc2)c1` (stereo not given) stands > 79 µM (inactive).
`Cc1ccc(S(=O)(=O)N(Cc2cccnc2)Cc2cc3ccccc3[nH]c2=O)cc1`: the IC50 was > 79 µM (inactive).
For `COc1ccccc1N1C(=O)c2ccccc2N2C(=O)c3c(ccc(OC)c3OC)C12` (stereo not given), the IC50 was 77.1 µM (inactive).
`COc1ccc(-c2cc(C(=O)N(C)C)c3ccccc3n2)cc1OC`: the IC50 is > 79 µM (inactive).
For `COc1ccc(-c2cc(C(=O)Nc3ccccc3)c3ccccc3n2)cc1OC`, the IC50 was > 79 µM (inactive).
Under `COc1ccc(-n2cc(-c3ccccc3)c3c(N4CCCCC4)ncnc32)cc1` stands > 79 µM (inactive).
As for `COc1ccc(-c2cc(C(=O)NCc3ccco3)c3ccccc3n2)cc1OC`, the IC50 is > 79 µM (inactive).
As to `Cc1ccc(C)c(S(=O)(=O)N2CCN(C(=O)c3cc4cc(C)ccc4nc3C)CC2)c1`, the IC50 was > 79 µM (inactive).
For the compound `Cc1ccc2cc(CN(Cc3cccnc3)S(=O)(=O)c3ccc(F)cc3)c(=O)[nH]c2c1`, the IC50 is > 79 µM (inactive).
On to `COc1ccc2c(c1OC)C(=O)N1c3ccccc3C(=O)N(c3ccccc3C)C21` (stereo not given), for which the IC50 is > 79 µM (inactive).
For the compound `COc1ccc(-c2cc(C(=O)N(C)Cc3ccc(OC)c(OC)c3OC)c3ccccc3n2)cc1OC`, the IC50 was > 79 µM (inactive).
For the compound `COc1cccc(CN(C)C(=O)c2cc(-c3ccc(OC)c(OC)c3)nc3ccccc23)c1`, the IC50 is > 79 µM (inactive).
`COc1ccc(-n2cc(-c3ccccc3)c3c(N4CCCC4)ncnc32)cc1`: the IC50 is > 79 µM (inactive).
Under `Cc1ccc2cc(CN(C)S(=O)(=O)c3ccc(F)cc3)c(=O)[nH]c2c1` stands > 79 µM (inactive); under `COc1ccc(S(=O)(=O)N(Cc2cccnc2)Cc2cc3ccccc3[nH]c2=O)cc1`, > 79 µM (inactive).
Regarding `COc1ccc(N2C(=O)c3ccccc3N3C(=O)c4c(ccc(OC)c4OC)C23)cc1` (stereo not given), the IC50 was > 79 µM (inactive).
Under `COCCNC(=O)C(c1ccc(O)cc1)N(C(=O)c1snc(C(N)=O)c1N)c1ccccc1F` (stereo not given) stands > 79 µM (inactive).
Regarding `CC(C)CCNC(=O)C(c1ccc(O)cc1)N(C(=O)c1snc(C(N)=O)c1N)c1ccccc1F` (stereo not given), the IC50 was > 79 µM (inactive).
With `COc1ccc2c(=O)c(C(=O)N3CCN(S(=O)(=O)c4c(C)cc(C)cc4C)CC3)c[nH]c2c1`, the IC50 is > 79 µM (inactive).
For `CCN(CC)C(=O)C(=O)c1c(-c2ccccc2)[nH]c2ccccc12`, the IC50 is > 79 µM (inactive).
Under `COc1ccc2cc(C(=O)N3CCN(S(=O)(=O)c4cc(C)ccc4C)CC3)c(C)nc2c1` stands > 79 µM (inactive).
As to `COc1ccc2c(c1OC)C(=O)N1c3ccccc3C(=O)N(c3ccc(F)cc3)C21` (stereo not given), the IC50 is 35.6 µM (inactive).

Values taken from PubChem BioAssay AID623872 (Sanford-Burnham Center for Chemical Genomics, 2012).
